The values that follow are results of earlier work, collected in patent US20190388350A1, “FORMULATION” (priority 2018, published 2019).

Counter-ions that a name gives are not always drawn.

On to `CCN(C)C(=O)Oc1cccc([C@H](C)N(C)C)c1` [rivastigmine tartrate], for which the pKa was 8.9.
